Test results taken from patent US7217735B1, “Methods and compositions for enhancing delivery of therapeutic agents to tissues” (priority 1999, dated 2007).

Tests used:
microtubule = settings: cited from earlier work
patient prostate tumors = experiment: Doxorubicin accumulation and penetration in tumor histocultures (fluorescence microscopy); format: in vitro ADME, human; settings: for Tissue concentration at 72 hr: in µM; for distribution of fluorescence signal: 5 or 20 μM
Procedure: (§1) In this example, the penetration of doxorubicin into multilayer tissue was monitored using prostate tumor specimens obtained from human cancer patients and using the human prostate PC3 xenograft tumor maintained in athymic mice. Doxorubicin was monitored by fluorescence.
(§2) Histocultures of tumors were incubated with 1, 5 or 20:M doxorubicin as described in Example 1. […] At 4, 12, 24, 36, 48, and 72 hours, histocultures were collected and processed as described in Example 1. The fluorescence emitted by doxorubicin was visualized using fluorescence microscopy. The excitation and emission wavelengths were 546 nm and 565 nm, respectively. Microscopic images were captured using a Charged Couple Device (CCD) camera and the captured images were analyzed using Optimas image analysis software (Silver spring, MD). The doxorubicin concentration in tissues was quantified using standard curves (each curve contained six data points), established as follows. Samples for the standard curves were prepared by applying known amounts of doxorubicin in solution to microscope sections of blank dog prostate tissue. The standard doxorubicin solutions (2:1) were pipetted on 10:m-thick blank tissue sections, and carefully spread over a surface area of approximately 1.5–2 cm^2. The standard slides were scanned using the same conditions as the samples. The average fluorescence intensity per area were measured. Plots of the fluorescence readings against the applied doxorubicin concentrations in the standard curve samples provided the standard curves used to quantify the doxorubicin in the actual samples. For the latter, at least three sections were used to obtain the mean value in one tumor, and at least three tumors were used to obtain the mean value at each time point.
(§3) The rate of doxorubicin penetration into patient and PC3 xenograft tumors was monitored using fluorescence microscopy.

PC3 xenograft tumor [1] = experiment: as above; format: in vitro ADME, human; settings: for Tissue-to-medium concentration ratio at 72 hr / Tissue concentration at 72 hr: PC3 xenograft tumor; for Tissue concentration at 72 hr: in µM; for distribution of fluorescence signal: 5 or 20 μM
Procedure: The androgen-independent human prostate PC3 cells were maintained as xenograft tumors in male nude mice according to the previously published procedures (Pretlow et al., 1993; Nagabhushan et al., 1996). Briefly, minced tumor tissue mixed with the same volume of Matrigel was implanted into both flanks of the nude mice at 0.3 ml per site. Tumors were harvested when they reached a size of 1 g at about 1.5 to 2 months after implantation.
as §1, §2, §3

PC3 xenograft tumor [2] = experiment: Tumor cell density after doxorubicin treatment; format: cell-based, human; settings: 5 or 20 μM
Procedure: The fractions of stromal tissue and tumor cells in each histoculture were measured using image analysis. Briefly, stromal and tumor cells of a 100× magnification field were outlined with the computer mouse. The sizes of each of these regions were determined via image analysis by counting the number of pixels in the region. […] Apoptotic cells were determined based on morphological changes in tumor cells such as chromatin condensation and margination, disappearance of nucleoli, formation of membrane blebs, apoptotic bodies and/or cell shrinkage (Kerr J F R et al. (1994) Cancer 73:2013). […] For each tumor piece, 50 to 100 images were processed, and the fractions of the tumor represented by tumor cells, stromal tissue, and interstitial space were calculated.

[3] = test system: patient prostate tumors and PC3 xenograft tumors; experiment: Doxorubicin concentration versus distance from tumor periphery (FIG. 4); format: in vitro ADME, human
Procedure: as §2, with “The standard doxorubicin solutions (2:1) were pipetted on 10:m-thick blank tissue sections, and carefully spread over a surface area of approximately 1.5–2 cm^2. The standard slides were scanned using the same conditions as the samples.” left out, “For the latter, at least three sections were used to obtain the mean value in one tumor, and at least three tumors were used to obtain the mean value at each time point.” left out
FIG. 4 summarizes the drug concentration in tumor tissue, expressed as tissue-to-medium concentration ratio, as a function of the distance from the periphery of the tumor histocultures. […]

[4] = test system: human prostate tumor histocultures; settings: cited from earlier work

## CC(=O)O[C@H]1C(=O)[C@@]2(C)[C@H]([C@H](OC(=O)c3ccccc3)[C@]3(O)C[C@H](OC(=O)[C@H](O)[C@@H](NC(=O)c4ccccc4)c4ccccc4)C(C)=C1C3(C)C)[C@]1(OC(C)=O)CO[C@@H]1C[C@@H]2O [7-epitaxol]
microtubule
  microtubule binding affinity compared with paclitaxel: similar

## COc1cccc2c1C(=O)c1c(O)c3c(c(O)c1C2=O)C[C@@](O)(C(=O)CO)C[C@@H]3O[C@H]1C[C@H](N)[C@H](O)[C@H](C)O1 [doxorubicin]
Patient prostate tumors; 1 μM in culture medium
  Tissue-to-medium concentration ratio at 72 hr: 29.2 ± 7.8
  Tissue concentration at 72 hr: 29.2 ± 7.8
Patient prostate tumors; 1 μM, by 72 hr
  drug distribution: distributed evenly throughout the patient tumors
Patient prostate tumors; 5 μM in culture medium
  Tissue-to-medium concentration ratio at 72 hr: 31.6 ± 14.2
  Tissue concentration at 72 hr: 158 ± 70.9
Patient prostate tumors; 20 μM in culture medium
  Tissue-to-medium concentration ratio at 72 hr: 36.9 ± 26.5
  Tissue concentration at 72 hr: 739 ± 531
Patient prostate tumors; after 24 hr
  distribution of fluorescence signal: evenly distributed throughout the histoculture
Patient prostate tumors; first 12 hr
  distribution of fluorescence signal: confined to the periphery
PC3 xenograft tumor [1]; 1 μM in culture medium
  PC3 xenograft-to-patient tumor concentration ratio at 72 hr: 1.15
  Tissue-to-medium concentration ratio at 72 hr: 33.6 ± 3.9
  Tissue concentration at 72 hr: 33.6 ± 3.9
PC3 xenograft tumor [1]; 5 μM in culture medium
  PC3 xenograft-to-patient tumor concentration ratio at 72 hr: 1.35
  Tissue-to-medium concentration ratio at 72 hr: 42.7 ± 3.3
  Tissue concentration at 72 hr: 213 ± 16.4
PC3 xenograft tumor [1]; 20 μM in culture medium
  PC3 xenograft-to-patient tumor concentration ratio at 72 hr: 1.5
  Tissue-to-medium concentration ratio at 72 hr: 55.3 ± 9.6
  Tissue concentration at 72 hr: 1107 ± 193
PC3 xenograft tumor [1]; xenograft tumor, 1 μM, at 72 hr
  drug distribution: remained confined to the periphery
PC3 xenograft tumor [1]; xenograft tumor, after 36 hr
  distribution of fluorescence signal: evenly distributed
PC3 xenograft tumor [1]; xenograft tumor, first 24 hr
  distribution of fluorescence signal: confined to the periphery
PC3 xenograft tumor [2]
  cell density in the periphery of the tumor: decreased with time
[3]; 1 μM
  equilibrium between far end (325 μm) and periphery (75 μm) concentration: did not reach equilibrium
[3]; 5 and 20 μM
  time at which equilibrium between far end and periphery was attained: 36 h
[4]; human prostate tumor histocultures, read-out: IC50, inhibition of tumor cell growth
  IC50: 61 nM
[4]; human prostate tumor histocultures, read-out: LC50, tumor cell death
  CC50: 2100 nM
[4]; patient prostate tumors
  concentration sufficient to produce 50% cell death: 2.1 :M
  concentration sufficient to produce 90% cell death: 4.2 :M
  concentration sufficient to produce 90% inhibition of tumor cell proliferation: 0.4 :M
